These results are taken from article PMC12292862 (Biomedicines, 2025).

SMILES strings stand for the structures. Entries after “also recorded” stand apart in the source; their conditions may differ. Marks after values point to notes of the source that are not given here.

One assay relates to rat cyclooxygenase 2. In words: COX-2 level in carrageenan-injected paw (ELISA). To be noted: compounds 200 mg/kg i.p., indomethacin 10 mg/kg, mean ± SD. It is filed as in vivo. How it is done: The selective pro-inflammatory cytokines were measured quantitatively using rat-specific Enzyme-Linked Immunosorbent Assay (ELISA) kits from Thermo Scientific™ (Waltham, MA, USA) with CAT. No. ERCRP for CRP; from Elabscience with Cat. No. E-EL-R2856 for TNF-α and with Cat. No. E-EL-R0011 for IL-1α; from CUSABIO, Houston, TX, USA, with Cat. No. CSB-E04640r for IL-6; and from My BioSource Co, USA, with Cat. No. MBS825017 for IL-1β, with Cat. No. MBS753621 for rat cyclooxygenase 1, and with Cat. No. MBS266603 for rat cyclooxygenase 2. […] We purchased malondialdehyde (MDA), glutathione (GSH), and superoxide dismutase (SOD) detection kits from Nanjing Jiancheng Bio-Technology Co. Ltd. (Nanjing, China).
(§1) At the end of the experiments, the rats were subjected to anesthesia with chloroform and then sacrificed. Blood was obtained via heart puncture for biochemical analysis. Following the animals’ sacrifice, the paws were taken out, decalcified, and stored in a 10% formalin solution. To prepare the tissue samples, they were sliced into thicknesses of 5 µm. Hematoxylin and eosin dyes were used to create the histology slides, which were then examined using a photomicroscope (Meiji Techno®, Iruma, Japan) for pathological alterations. The presence of inflammation was documented. Protease/phosphatase inhibitor cocktail in cold phosphate-buffered saline (1:4) (pH 7, 0.01 mol/L) (Cat. No. PPC1010, Sigma-Aldrich) was used to homogenize each rat’s paw piece in a glass homogenizer. After filtering and centrifuging the resultant homogenate for five minutes at 5000× g, oxidative stress biomarkers like GSH, SOD, and MDA were measured. The trials were repeated three times.
In general terms: Carrageenan injected into the paw causes an acute inflammation.

The test system of the next assay is rat paw tissue. As to the kind of experiment: Histopathological examination of paw tissue (HE). It is filed as in vivo. To be noted: carrageenan-injected paw; compounds 200 mg/kg i.p., indomethacin 10 mg/kg.
Text: as §1

The test system of the next assay is rat cyclooxygenase 1. In words: COX-1 level in carrageenan-injected paw (ELISA). In kind it is in vivo. To be noted: compounds 200 mg/kg i.p., indomethacin 10 mg/kg, mean ± SD. How it is done: (§2) The selective pro-inflammatory cytokines were measured quantitatively using rat-specific Enzyme-Linked Immunosorbent Assay (ELISA) kits from Thermo Scientific™ (Waltham, MA, USA) with CAT. No. ERCRP for CRP; from Elabscience with Cat. No. E-EL-R2856 for TNF-α and with Cat. No. E-EL-R0011 for IL-1α; from CUSABIO, Houston, TX, USA, with Cat. No. CSB-E04640r for IL-6; and from My BioSource Co, USA, with Cat. No. MBS825017 for IL-1β, with Cat. No. MBS753621 for rat cyclooxygenase 1, and with Cat. No. MBS266603 for rat cyclooxygenase 2. Meanwhile, an ovine COX inhibitor-screening in vitro assay (item number 760111) was obtained from Cayman Chemical (Ann Arbor, MI, USA). We purchased malondialdehyde (MDA), glutathione (GSH), and superoxide dismutase (SOD) detection kits from Nanjing Jiancheng Bio-Technology Co. Ltd. (Nanjing, China).
as §1

The subject of a further assay is IL-1α. As to the kind of experiment: Serum IL-1α (ELISA) in carrageenan-injected rats. In kind it is in vivo, rat. The following applies: compounds 200 mg/kg i.p., indomethacin 10 mg/kg, mean ± SD. Here is the method: as §2, §1
The subject of assay [1] is superoxide dismutase (SOD). In words: Paw tissue oxidative stress biomarker SOD. To be noted: carrageenan rats, 200 mg/kg i.p. It is filed as in vivo, rat. How it is done:
as §2, §1

A further assay has as its target T1, COX-1 (Ovis aries, UniProt P05979).
T1 construct: purchased Cayman Chemical 760111
T1 sequence (P05979 25-600): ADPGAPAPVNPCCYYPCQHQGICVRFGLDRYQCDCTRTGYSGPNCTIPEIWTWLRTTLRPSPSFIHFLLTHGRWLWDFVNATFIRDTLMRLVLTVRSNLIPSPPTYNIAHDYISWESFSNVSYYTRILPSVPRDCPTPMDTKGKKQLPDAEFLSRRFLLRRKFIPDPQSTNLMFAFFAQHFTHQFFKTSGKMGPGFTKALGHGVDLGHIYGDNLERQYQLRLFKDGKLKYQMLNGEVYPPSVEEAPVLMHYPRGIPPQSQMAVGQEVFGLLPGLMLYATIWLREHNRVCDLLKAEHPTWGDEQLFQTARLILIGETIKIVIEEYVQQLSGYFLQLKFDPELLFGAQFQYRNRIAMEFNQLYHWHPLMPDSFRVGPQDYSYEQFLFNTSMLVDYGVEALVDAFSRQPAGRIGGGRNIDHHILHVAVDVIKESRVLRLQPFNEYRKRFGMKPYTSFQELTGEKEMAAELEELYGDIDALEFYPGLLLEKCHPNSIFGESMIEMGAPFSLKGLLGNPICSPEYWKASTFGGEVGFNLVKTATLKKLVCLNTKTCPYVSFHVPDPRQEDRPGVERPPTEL
As to the kind of experiment: In vitro colorimetric COX (ovine) inhibitor-screening assay, COX-1. In kind it is biochemical. The following applies: ovine COX-1, tested at 50, 100 and 150 µg/mL. How it is done:
The test compounds’ ability to suppress COX-1 and COX-2 was evaluated using a colorimetric COX (ovine) inhibitor-screening method (Cayman Chemical, Item Number 760111). In brief, 150 μL of assay buffer, 10 μL of heme, 10 μL of enzyme (COX-1 or COX-2), and 10 μL of compound (1 mg/mL) make up the reaction mixture. In a final volume of […], the test compounds were evaluated at doses of 50, 100, and 150 μg/mL. The cyclooxygenase peroxidase component is used in the experiment. By monitoring the appearance of oxidized N, N, […] (TMPD) at 590 nm, the peroxidase activity is measured […]. […] The following formula was used to determine the % COX inhibition: The COX inhibition activity percentage is equal to (1 − T/C ×100), where T is the inhibitor well’s absorbance and C is the starting activity’s absorbance at 100% without the inhibitor well.

The next assay relates to CRP. As to the kind of experiment: Serum CRP (ELISA) in carrageenan-injected rats. To be noted: compounds 200 mg/kg i.p., indomethacin 10 mg/kg, mean ± SD. It is filed as in vivo, rat. How it is done:
as §2, §1

Assay [2] relates to carrageenan-induced rat paw edema. In words: Carrageenan-induced paw edema. The following applies: for inhibition of paw edema after 1 h / inhibition of paw edema after 2 h / inhibition of paw edema after 3 h: 200 mg/kg i.p.; for inhibition of paw edema after 1 h: 1 h after carrageenan; for inhibition of paw edema after 2 h: 2 h after carrageenan; for inhibition of paw edema after 3 h: 3 h after carrageenan; for inhibition of paw edema after 4 h: compounds 200 mg/kg i.p., indomethacin 10 mg/kg, 4 h after carrageenan. In kind it is in vivo. An excerpt: Rats’ carrageenan-induced paw edema model was used to assess the novel synthesized drugs’ anti-inflammatory properties. A total of 180–190 g of male Wistar rats were used for the experiments. In the animal house at Sohag University in Sohag, Egypt, every animal was kept in careful laboratory conditions. After being weighed and divided into six groups at random, the animals are housed for a week to reduce stress and allow them to get used to the laboratory environment. The chemicals that were synthesized were administered intraperitoneally (i.p.) to rats at a dosage of 200 mg/kg. The control group received only vehicles. […] The rats were given a 0.2 mL sub-plantar injection of a 1% (w/v) suspension of carrageenan (made in PBS) in their right hind paw thirty minutes following the injection of synthesized compounds [33]. […] The % inhibition of paw edema was calculated by the following formula [34]:%Inhibition = ((Mean edema of control group − Mean edema of test compound)/(Mean edema of control group)) × 100.

In the case of `NC1=NC2(CCCCCC2)n2nc(C(=O)Nc3ccc(S(N)(=O)=O)cc3)nc2N1` [Compound 1, 5′-Amino-N-(4-sulfamoylphenyl). -1′H-spiro[cycloheptane-1,7′-[1,2,4]triazolo[1,5-a][1,3,5] -triazine] -2′-carboxamide], in the assay with rat cyclooxygenase 2, the COX-2 level is 3.44 ± 0.30 ng/mL. The “histopathological findings of paw tissue (HE)” value (“histopathological findings” below) with rat paw tissue is recorded as “mild inflammatory dermal edema”. For the same molecule, the COX-1 level in the assay with rat cyclooxygenase 1 is 4.31 ± 0.90 ng/mL. The IL-1α in the assay with IL-1α was 56.97 ± 0.79 ^b pg/mL. Moreover, in assay [1], the SOD activity result is reported as “notable improvements”. For the same molecule, on COX-1, the “COX-1 inhibition % (mean activity)” value turned out to be 70%. Also, the CRP in the assay with CRP is listed as 4.19 ± 0.28 ^b ng/mL. In assay [2], the “inhibition of paw edema after 1 h” value is recorded as 53.6%, the “inhibition of paw edema after 2 h” value is recorded as 65.74%, the “inhibition of paw edema after 3 h” value was determined as 78.52% and the “inhibition of paw edema after 4 h” value is given as 96.31%.

`NC1=NC2(c3ccccc3Cc3ccccc32)n2nc(C(=O)Nc3ccc(S(N)(=O)=O)cc3)nc2N1` [Compound 3]: the COX-2 level with rat cyclooxygenase 2 is recorded as 2.22 ± 0.06 ng/mL. The “histopathological findings” value with rat paw tissue is on record as “normal dermis; also recorded: normal dermis without any lesion; also recorded: normal histological structure without edema or lesions”. In the assay on rat cyclooxygenase 1, this molecule registered a COX-1 level of 2.82 ± 0.08 ng/mL. The IL-1α in the assay with IL-1α is on record as 40.66 ± 0.43 ^b pg/mL. For the same molecule, the SOD activity entry in assay [1] (200 mg/kg) was “near-control values”. The molecule also gave an SOD activity in assay [1] (listed as compound 3, 200 mg/kg) of 38.48 ± 0.31 U/mg protein. Further, the “COX-1 inhibition % (mean activity)” value at COX-1 came out at 70%. Moreover, the CRP with CRP is listed as 2.20 ± 0.36 ^b ng/mL. Further, in assay [2], the “inhibition of paw edema after 1 h” value was determined as 59.5%, the “inhibition of paw edema after 2 h” value is reported as 79.93%, the “inhibition of paw edema after 3 h” value is listed as 97.23% and the “inhibition of paw edema after 4 h” value was determined as 99.69%.

Take `CC1(C)CC(=O)CC2(C1)N=C(N)Nc1nc(C(=O)Nc3ccc(S(N)(=O)=O)cc3)nn12` (stereo not shown) [Compound 2]: the COX-2 level in the assay on rat cyclooxygenase 2 stood at 4.10 ± 0.09 ng/mL. The “histopathological findings” value with rat paw tissue is listed as “moderate edema”. In the assay on rat cyclooxygenase 1, this molecule had a COX-1 level of 5.24 ± 0.09 ng/mL. Also, the IL-1α in the assay with IL-1α is 62.82 ± 0.94 ^b pg/mL. In assay [1], the SOD activity entry was “notable improvements”. At COX-1, the “COX-1 inhibition % (mean activity)” value turned out to be 69%. Further, in the assay with CRP, the CRP is 3.02 ± 0.28 ^b ng/mL. Moreover, in assay [2], the “inhibition of paw edema after 4 h” value amounted to 72.08%.
